According to patent US20250000999A1, “POLYMERSOMES FOR CLEARANCE OF AMYLOID BETA AND/OR TAU PROTEINS” (UCL Business Ltd, priority 2021, published 2025):

Tested on: LRP-1
Assay: Single binding energy of a ligand/LRP-1 receptor pair
Excerpt: wherein: • λ is the density of the ligand type on the external surface of the microparticle or nanoparticle (number per nm^2 • A is the microparticle or nanoparticle surface area (in nm^2); • ξ is the number of the LRP-1 receptors accessible to the nanoparticles, and thus ξ=ΓA where, Γ is the LRP-1 surface density (number per nm^2) and A is as defined above; • β=(kBT)^−1 wherein kB is the Boltzmann constant (in JK^−1) and T is the absolute temperature in Kelvin; • εB is the single energy of binding of a ligand type/LRP-1 receptor pair (in J); and • uS is the steric potential between the nanoparticle or microparticle and the cell surface (in J).
The single ligand binding potential εB between a given ligand and the LRP-1 receptor can be measured experimentally by binding assays including Surface plasmon resonance spectroscopy, Isothermal titration calorimetry, radiolabeling or fluorescent labelling. It can also be estimated computationally using molecular docking and or molecular dynamics methods.

Chain of LRP-1 (Q07954 20-4544, species assumed): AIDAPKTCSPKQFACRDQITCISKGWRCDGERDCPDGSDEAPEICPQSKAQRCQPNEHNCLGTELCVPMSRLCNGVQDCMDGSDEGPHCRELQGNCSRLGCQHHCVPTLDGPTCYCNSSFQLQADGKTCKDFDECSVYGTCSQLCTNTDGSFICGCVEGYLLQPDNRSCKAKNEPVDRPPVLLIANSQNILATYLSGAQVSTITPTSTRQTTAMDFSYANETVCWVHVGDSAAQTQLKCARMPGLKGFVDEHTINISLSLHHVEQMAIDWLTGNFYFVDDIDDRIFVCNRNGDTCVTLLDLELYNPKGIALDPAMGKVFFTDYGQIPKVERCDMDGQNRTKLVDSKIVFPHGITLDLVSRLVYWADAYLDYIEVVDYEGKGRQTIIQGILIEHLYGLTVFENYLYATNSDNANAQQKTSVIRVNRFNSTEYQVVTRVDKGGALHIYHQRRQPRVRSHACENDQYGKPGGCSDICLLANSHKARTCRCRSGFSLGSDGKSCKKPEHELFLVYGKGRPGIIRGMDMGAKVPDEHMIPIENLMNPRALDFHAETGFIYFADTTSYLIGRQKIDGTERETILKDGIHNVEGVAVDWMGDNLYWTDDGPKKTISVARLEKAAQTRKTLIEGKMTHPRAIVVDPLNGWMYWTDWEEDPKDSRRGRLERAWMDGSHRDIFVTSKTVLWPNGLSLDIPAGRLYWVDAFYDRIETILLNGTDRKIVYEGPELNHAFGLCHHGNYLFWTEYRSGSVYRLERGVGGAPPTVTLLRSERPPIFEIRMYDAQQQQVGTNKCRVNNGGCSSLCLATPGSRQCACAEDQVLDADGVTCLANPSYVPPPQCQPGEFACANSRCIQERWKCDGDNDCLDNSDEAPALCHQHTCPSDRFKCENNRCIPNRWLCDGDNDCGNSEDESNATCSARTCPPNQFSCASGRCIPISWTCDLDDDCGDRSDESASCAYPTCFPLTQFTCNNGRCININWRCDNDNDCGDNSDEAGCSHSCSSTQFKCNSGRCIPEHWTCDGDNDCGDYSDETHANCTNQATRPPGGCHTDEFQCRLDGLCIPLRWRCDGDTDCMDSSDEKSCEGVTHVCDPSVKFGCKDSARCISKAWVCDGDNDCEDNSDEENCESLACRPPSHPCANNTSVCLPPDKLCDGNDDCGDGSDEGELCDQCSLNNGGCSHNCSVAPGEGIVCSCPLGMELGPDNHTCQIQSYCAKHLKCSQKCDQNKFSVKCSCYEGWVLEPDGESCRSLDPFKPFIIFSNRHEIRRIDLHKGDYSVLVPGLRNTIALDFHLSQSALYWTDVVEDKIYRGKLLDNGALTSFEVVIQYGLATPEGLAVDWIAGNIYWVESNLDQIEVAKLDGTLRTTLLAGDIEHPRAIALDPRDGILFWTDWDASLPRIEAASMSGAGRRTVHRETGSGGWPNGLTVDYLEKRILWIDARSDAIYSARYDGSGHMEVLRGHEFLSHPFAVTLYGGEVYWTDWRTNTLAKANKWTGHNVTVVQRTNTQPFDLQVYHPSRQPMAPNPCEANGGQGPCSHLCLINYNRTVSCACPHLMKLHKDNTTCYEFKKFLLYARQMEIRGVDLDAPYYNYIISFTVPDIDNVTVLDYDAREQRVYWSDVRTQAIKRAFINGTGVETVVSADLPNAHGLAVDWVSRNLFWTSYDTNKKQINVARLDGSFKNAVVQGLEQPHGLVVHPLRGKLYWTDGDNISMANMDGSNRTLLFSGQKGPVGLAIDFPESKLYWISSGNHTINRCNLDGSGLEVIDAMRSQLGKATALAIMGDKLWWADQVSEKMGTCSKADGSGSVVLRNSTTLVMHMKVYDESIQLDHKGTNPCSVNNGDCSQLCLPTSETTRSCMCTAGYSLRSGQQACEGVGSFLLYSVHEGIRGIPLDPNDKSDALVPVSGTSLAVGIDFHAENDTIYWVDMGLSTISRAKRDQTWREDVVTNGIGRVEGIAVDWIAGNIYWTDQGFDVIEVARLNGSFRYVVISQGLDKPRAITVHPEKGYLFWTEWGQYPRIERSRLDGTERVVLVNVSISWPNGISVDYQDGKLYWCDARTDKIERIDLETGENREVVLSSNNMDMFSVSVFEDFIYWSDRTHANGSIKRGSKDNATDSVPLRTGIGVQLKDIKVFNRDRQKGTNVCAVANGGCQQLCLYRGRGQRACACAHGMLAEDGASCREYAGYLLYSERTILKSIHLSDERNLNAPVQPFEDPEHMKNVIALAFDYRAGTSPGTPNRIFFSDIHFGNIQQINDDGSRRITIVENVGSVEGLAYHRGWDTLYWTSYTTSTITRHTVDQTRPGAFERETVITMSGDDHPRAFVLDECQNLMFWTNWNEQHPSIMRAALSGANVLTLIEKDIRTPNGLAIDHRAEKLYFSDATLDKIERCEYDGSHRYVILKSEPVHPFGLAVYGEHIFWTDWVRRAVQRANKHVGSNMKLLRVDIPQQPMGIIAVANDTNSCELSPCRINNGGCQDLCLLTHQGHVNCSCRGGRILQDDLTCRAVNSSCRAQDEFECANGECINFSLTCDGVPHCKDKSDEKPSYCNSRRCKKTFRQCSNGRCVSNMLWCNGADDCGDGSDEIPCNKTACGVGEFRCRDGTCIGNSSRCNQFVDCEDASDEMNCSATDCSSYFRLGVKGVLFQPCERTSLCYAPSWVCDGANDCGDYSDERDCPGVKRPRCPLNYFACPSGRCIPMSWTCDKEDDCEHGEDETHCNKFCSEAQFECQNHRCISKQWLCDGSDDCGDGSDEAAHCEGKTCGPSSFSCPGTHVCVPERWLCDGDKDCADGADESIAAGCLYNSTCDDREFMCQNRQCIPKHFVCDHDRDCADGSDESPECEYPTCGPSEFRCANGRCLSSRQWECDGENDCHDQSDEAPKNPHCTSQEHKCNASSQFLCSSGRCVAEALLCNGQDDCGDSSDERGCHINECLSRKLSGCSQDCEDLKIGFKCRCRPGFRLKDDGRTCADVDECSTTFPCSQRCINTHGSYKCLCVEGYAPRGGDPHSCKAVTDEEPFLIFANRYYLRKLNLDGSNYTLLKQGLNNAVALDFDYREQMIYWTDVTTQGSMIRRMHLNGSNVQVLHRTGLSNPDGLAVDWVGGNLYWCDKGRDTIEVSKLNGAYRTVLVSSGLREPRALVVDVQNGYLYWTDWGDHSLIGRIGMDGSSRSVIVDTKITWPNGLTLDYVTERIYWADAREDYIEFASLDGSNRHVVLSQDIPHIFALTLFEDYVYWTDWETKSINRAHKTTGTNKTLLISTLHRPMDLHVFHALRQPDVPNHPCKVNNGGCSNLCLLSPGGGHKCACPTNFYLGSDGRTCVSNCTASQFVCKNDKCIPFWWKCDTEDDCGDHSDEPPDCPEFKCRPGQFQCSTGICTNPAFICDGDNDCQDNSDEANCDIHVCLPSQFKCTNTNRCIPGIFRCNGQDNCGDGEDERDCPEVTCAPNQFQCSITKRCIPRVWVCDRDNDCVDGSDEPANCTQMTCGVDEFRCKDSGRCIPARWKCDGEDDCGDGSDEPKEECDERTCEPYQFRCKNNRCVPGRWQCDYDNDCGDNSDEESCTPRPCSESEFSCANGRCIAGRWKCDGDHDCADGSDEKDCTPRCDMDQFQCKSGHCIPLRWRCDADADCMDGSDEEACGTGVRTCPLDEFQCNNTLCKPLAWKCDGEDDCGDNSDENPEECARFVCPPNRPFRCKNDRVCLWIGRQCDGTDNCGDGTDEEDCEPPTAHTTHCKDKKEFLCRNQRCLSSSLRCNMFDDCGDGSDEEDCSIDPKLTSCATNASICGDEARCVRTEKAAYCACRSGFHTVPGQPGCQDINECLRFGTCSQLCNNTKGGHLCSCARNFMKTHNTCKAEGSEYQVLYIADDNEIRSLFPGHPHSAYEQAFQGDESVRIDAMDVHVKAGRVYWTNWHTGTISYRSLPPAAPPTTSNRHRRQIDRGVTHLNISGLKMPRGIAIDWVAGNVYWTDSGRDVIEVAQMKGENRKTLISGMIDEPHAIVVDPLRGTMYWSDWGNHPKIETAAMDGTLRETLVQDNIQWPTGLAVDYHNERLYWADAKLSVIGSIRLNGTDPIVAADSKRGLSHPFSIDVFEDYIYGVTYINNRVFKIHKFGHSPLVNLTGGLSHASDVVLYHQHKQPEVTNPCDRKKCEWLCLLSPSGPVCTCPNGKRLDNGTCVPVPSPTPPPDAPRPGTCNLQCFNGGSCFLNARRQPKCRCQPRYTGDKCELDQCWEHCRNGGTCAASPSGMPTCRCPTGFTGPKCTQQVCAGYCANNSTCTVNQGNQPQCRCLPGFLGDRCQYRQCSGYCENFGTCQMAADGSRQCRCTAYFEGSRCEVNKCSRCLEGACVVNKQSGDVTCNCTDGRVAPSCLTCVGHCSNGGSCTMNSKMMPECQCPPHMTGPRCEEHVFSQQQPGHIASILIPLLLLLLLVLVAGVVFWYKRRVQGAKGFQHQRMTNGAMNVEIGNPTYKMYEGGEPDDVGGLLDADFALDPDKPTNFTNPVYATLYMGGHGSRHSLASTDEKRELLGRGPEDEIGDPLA

Sequence: TFFYGGSRGKRNNFKTEEY [Angiopep-2]
- εB, single energy of binding of ligand/LRP-1 receptor pair: −15 kBT
